# In patent US10240124B2, “Cell culture substrate comprising a laminin and a cadherin” (BioLamina AB, priority 2011, dated 2019):
# Legend:
# [1] = tested on: human embryonic stem cells; experiment: Survival of hES cells plated in single cell suspension on precoated dishes (description); type: cell-based; conditions: O3 medium, 30 Kcells/cm^2
# Source text: In other aspects, the present disclosure provides a new material, isolated laminin-521, which permits human embryonic stem cell survival after dissociation into single cell suspension. The stem cells were dissociated into single cell suspension by Trypsin-EDTA treatment, pelleted by centrifugation, resuspended into O3 medium, filtered through a 40 μm sieve, and plated at a density of 30 Kcells/cm^2 on cell culture dishes precoated by either isolated laminin-521, laminin-511, or Matrigel. After one day in culture, the cells plated on Matrigel died, as is known in the art.
# myosin light chain (MLC) = experiment: Western blot of phosphorylated myosin light chain; type: cell-based, human; conditions: one and six hours after plating, FIG. 12 and 13
# Procedure: HS 181 cells were trypsinized into single cell suspension as described above. For inhibition experiments, the cells were kept in O3 medium with blocking antibodies or pathway inhibitors for 30 minutes and then 450K cells were plated on 35 mm dishes precoated with the appropriate matrix coating. For other experiments, same number of cells was plated directly after trypsinization. […] After two washings in ice-cold PBS, the plates with cells were snap frozen in liquid nitrogen and stored at −80° C. To prepare samples for western blots and ELISA, the plates were slowly thawed and kept on ice with 100-150 μl of lysis buffer (50 mM Tris-HCl, pH7.5, 150 mM NaCl, 0.5% deoxycholate, 0.5% SDS, 1% Triton X-100, 1% Igepal, Complete™ (Roche) and Phospho-Stop™ (Roche)) on top. Then, the cells were scraped, pipetted and sheared through a 27 G ¾″ needle. After that, the cell pellets were clarified by centrifugation at 16,100 rcf for 15 minutes at 4° C. For western blots, 4-12% gradient gels were used for SDS electrophoresis and the proteins were transferred to PVDF membranes. The membrane was hybridized with the antibody of interest according to the manufacturer's instructions. […] For the densitometry analysis the films were scanned at 2,400 dpi and analyzed by the Chemilmager5500 program (1 D-Multi Line densitometry mode). […]
# hES cells [2] = experiment: Expression of pluripotency and differentiation markers (RT-PCR, FACS, immunofluorescence); type: cell-based, human; conditions: compared with cells on Matrigel passed as small clumps
# Procedure: For immunofluorescence studies, ES cells were cultured and fixed in 8-well slide chambers (BD Biosciences) or 96-well plate wells by 4% paraformaldehyde, permeabilized by 0.1% Triton-X and blocked by 10% bovine fetal serum (GIBCO Invitrogen Corporation) in phosphate-saline buffer (PBS) containing 0.1% Tween-20 (Sigma-Aldrich, St. Louis, http://www.sigmaaldrich.com) for one hour. Incubation with primary antibody was performed for 1.5 hours at room temperature. Incubation with secondary antibody and 4,6-diamidino-2-phenylindole (DAPI, Molecular Probes) was performed for 40 minutes. Between incubations, the specimens were washed with 0.1% Tween-20 in PBS buffer three to five times. Specimens were preserved in a fluorescence mounting medium (Dako, Glostrup, Denmark, http://www.dako.com), and observed under a fluorescence microscope (Leica, Heerbrugg, Switzerland, http://www.leica.com).
# Total RNA was isolated using Absolutely RNA Microprep Kit (Stratagene, La Jolla Calif., www.stratagene.com) according to the manufacturer's instructions. cDNA was synthesized using 0.2 μg of total RNA in 20 μl reaction mixture, containing oligo(dT)12-18 primers and Superscript II reverse transcriptase (GIBCO Invitrogen Corporation), according to the manufacturer's instructions. […] All data was analyzed with 7300 System SDS Software v 1.4. […]
# hES cells [3] = experiment: Cell adhesion assay, 1 hour (Example 2); type: cell-based, human; conditions: compared with Matrigel or LN-111, not shown
# Procedure: Tissue cell culture plates were coated overnight at 4° C. with sterile solutions of the ECM proteins, such as human recombinant LN-521, all at a concentration of 30 μg/ml (5 μg/cm^2). Control plates were coated with Matrigel according to the STEMCELL Technologies' instructions. Prior to use, dishes were pre-warmed in an incubator for one hour after which prewarmed O3 medium was added without additional washing of the dish. After applying a fresh LN-521 solution to a new dish, the remaining LN-521 solution could be used at least once more. All the adhesion, survival, and inhibition of survival experiments were carried out using fresh coating materials.
# Briefly, 96-well plates were coated by extracellular matrix proteins as described above and blocked by O3 medium containing bovine serum albumin. The ES cells were plated at cell density of 50,000 cells/cm^2 onto extracellular matrix-coated plates and left to adhere for 1 hour in a cell incubator. After that the plates were washed 3 times with the medium to remove the non-adherent cells, and then the adherent cells were fixed for 20 minutes by 5% glutaraldehyde, stained by 0.1% Crystal Violet. (Kebo Lab, Spanga, Sweden, http://www.kebolab.se). After one hour and 3 washes with water, Crystal Violet was extracted with 10% acetic acid and quantified by measuring optical density at 570 nm. All the experiments were performed in quadruplicate.
# [4] = tested on: human pluripotent cells (HS181, HS401, H1, ChiPSW, CutB1.2); experiment: Long-term self-renewal culture of hES and iPS cells on LN-521 (Example 2); type: cell-based; conditions: for passages of proliferation on LN-521: O3 medium
substance,measurement,setting,value
"LN-521: protein formed by joining α5, β2 and γ1 laminin chains; human recombinant, produced in HEK293 cells",survival of human embryonic stem cells after one day in culture,[1],survived and started to proliferate
same,phosphorylation of MLC compared with cells on Matrigel and LN-111,myosin light chain (MLC),even higher
same,"expression levels of pluripotency markers Oct4, Nanog and SSEA4",hES cells [2],stable expression levels
same,spreading of the cells after one hour,hES cells [3],clearly better
same,passages cultured on LN-521,"[4]; ChiPSW iPS cells, mTeSR1",3 passages
same,passages cultured on LN-521,"[4]; CutB1.2 iPS cells, mTeSR1",5 passages
same,passages of proliferation on LN-521,"[4]; H1 cells, 6 months",≥ 15 passages
same,passages cultured on LN-521,"[4]; H1 cells, TeSR2, xeno-free, 5 months",12 passages
same,passages of proliferation on LN-521,"[4]; HS181 cells, 9 months",at least 24 passages
same,passages of proliferation on LN-521,"[4]; HS401 cells, 2 months",≥ 5 passages
same,passages cultured on LN-521,"[4]; HS401 cells, TeSR2, xeno-free, 1.5 months",4 passages
